Earlier results as cited in patent US8889636B2, “Anti-microbial compositions” (Biotelliga Holdings Limited, priority 2010, dated 2014).
Converted amounts (≈) assume the structure as drawn.

Key:
Candidia albacans = conditions: modest antifungal activity
[1] = tested on: HIV-1 regulatory protein and its viral RNA binding site

## CCC(C)CC(C)/C=C(/C=C(C)/C=C/C=C/C=C/C=C/C=C/c1cc2c(c(=O)o1)[C@H](O)[C@@H](O)[C@H](C(O)C(O)CO)O2)C(=O)O (some centres unmarked) [Orevactaene]
Candidia albacans
  MIC: 250 µg/mL (≈ 408 µM)
[1]
  Inhibition of binding of HIV-1 regulatory protein and its viral RNA binding site: found to inhibit binding
